Assay results: US9763442B2, “In situ generation of peroxycarboxylic acids at alkaline pH, and methods of use thereof” (priority 2010, dated 2017)

Assays:
[1] = Coupling of precipitated aqueous POOA by surfactants/hydrotropes; type: physicochemical; settings: 1000 ppm POOA in DI Water
Procedure: A variety of surfactants were analyzed for coupling and/or dispersion stabilizing of a peroxycarboxylic acid composition generated according to the methods of the invention. In particular, a peroxyoctanoic acid (POOA) composition in deionized water produced according to the invention was analyzed for coupling and/or dispersion stabilization using the dispersing agents set forth in Table 14A.
Given the very limited water solubility of POOA in its protonated form, acidification of the alkaline perhydrolysis solutions of the same causes immediate precipitation and rapid phase separation. In this example various surfactants and hydrotropes were evaluated for their ability to couple the POOA. In Table 14A it can be seen that the most efficient agents for coupling an already precipitated solution of POOA were samples I and II.

[2] = Dispersion stability of acidified POOA solutions with dispersing agents; type: physicochemical; settings: acidified POOA solution, 10,000 ppm H2SO4; oil sheen = fail
Procedure: The SLS, LAS and SOA dispersing agents were then further examined for efficacy in stabilizing and/or dispersing in 1% or lower sulfuric acid solutions. […] Solution 13 was made as 1 through 12 with the addition of 50 mL of 5 grain hard water to the aliquot of alkaline reaction solution followed by swirling with the surface aliquot and then additional 50 mL of 5 grain hard water, followed within about 5 seconds by 50 mL of 5 grain 2% sulfuric acid and swirled. Solution 14 was made by direct addition of 1% sulfuric acid (5 grain) without pre-dilution, but after moments of swirling with SLS aliquot. All concentrations are shown in ppm. […] The appearance of an oil sheen was regarded as a pass or fail.

| Compound | Amount of (B) Required for Coupling [1] | Amount of (B) Required for Coupling ([1]; listed as LAS) | oil sheen at 23 h [2] |
| --- | --- | --- | --- |
| CCCCCCCCCCCCOS(=O)(=O)[O-].[Na+] [I, Sodium Lauryl Sulfate] | 0.64 g/200 g aq POOA |  |  |
| CCCCCCCCS(=O)(=O)[O-].[Na+] [VII, Sodium octanesulfonate] | 6.60 g/200 g aq POOA |  |  |
| CCCCC(CC)COC(=O)CC(C(=O)OCC(CC)CCCC)S(=O)(=O)[O-].[Na+] (centres unmarked) [X, Sodium dioctyl Sulfosuccinates] | >2.0 g/200 g aq POOA |  |  |
| Alkyl Polyglycosides [VI] | 2.46 g/200 g aq POOA |  |  |
| Linear Aryl Sulfonate [II] | 0.65 g/200 g aq POOA | 0.64 g/200 g aq POOA | minimal surface oil |
| Sodium Lauryl Ether Sulfate [III] | >0.94 g/200 g aq POOA |  |  |
